How the values were obtained:
blackgrass = assay: Test B pre/postemergence blackgrass; type: in vivo, Alopecurus myosuroides; details: Preemergence
Outline: (§1)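 Response is a visual 0-to-10 score relative to untreated plants, where 0 means no effect and 10 means complete control, taken twelve to sixteen days after application. Treatments went onto soil at planting and onto foliage of 1- to 4-leaf plants, using a surfactant-containing non-phytotoxic solvent.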

sugar beet = assay: Test B pre/postemergence sugar beet; type: in vivo, Beta vulgaris; details: Preemergence
Outline: as §1

wild oat = assay: Test B pre/postemergence wild oat; type: in vivo, Avena fatua; details: Preemergence
Outline: as §1

rape = assay: Test B pre/postemergence rape; type: in vivo, Brassica napus; details: Preemergence
Outline: as §1

soybean = assay: Test B pre/postemergence soybean; type: in vivo, Glycine max; details: Preemergence
Outline: as §1

purple nutsedge = assay: Test B pre/postemergence purple nutsedge; type: in vivo, Cyperus rotundus; details: Preemergence, scale of 0 to 10 where 0 is no effect and 10 is complete control
Outline: as §1

corn = assay: Test B pre/postemergence corn; type: in vivo, Zea mays; details: Preemergence
Outline: as §1

surinam grass = assay: Test B pre/postemergence surinam grass; type: in vivo, Brachiaria decumbens; details: Preemergence
Outline: as §1

morningglory = assay: Test B pre/postemergence morningglory; type: in vivo, Ipomoea hederacea; details: Preemergence
Outline: as §1

giant foxtail = assay: Test B pre/postemergence giant foxtail; type: in vivo, Setaria faberii; details: Preemergence
Outline: as §1

velvetleaf = assay: Test B pre/postemergence velvetleaf; type: in vivo, Abutilon theophrasti; details: Preemergence
Outline: as §1

cocklebur = assay: Test B pre/postemergence cocklebur; type: in vivo, Xanthium strumarium; details: Preemergence
Outline: as §1

crabgrass = assay: Test B pre/postemergence crabgrass; type: in vivo, Digitaria sanguinalis; details: Preemergence
Outline: as §1

wheat = assay: Test B pre/postemergence wheat; type: in vivo, Triticum aestivum; details: Preemergence
Outline: as §1

bedstraw = assay: Test B pre/postemergence bedstraw; type: in vivo, Galium aparine; details: Preemergence
Outline: as §1

pigweed = assay: Test B pre/postemergence pigweed; type: in vivo, Amaranthus retroflexus; details: Preemergence
Outline: as §1

[1] = Rate 62 g/ha, scale of 0 to 10 where 0 is no effect and 10 is complete control
[2] = Rate 125 g/ha, scale of 0 to 10 where 0 is no effect and 10 is complete control
[3] = Rate 250 g/ha, scale 0 (no effect) to 10 (complete control)
[4] = Rate 500 g/ha, scale 0 to 10 (0 no effect, 10 complete control)

## CC(C)N(C(=O)n1oc(=O)n(C(C)C(=S)N(C)C)c1=O)c1ccc(F)cc1 (stereo not shown) [Compound 728]
blackgrass; [1]
  Blackgrass plant response rating: 0
blackgrass; [2]
  Plant response rating, Blackgrass: 9
blackgrass; [3]
  Blackgrass plant response rating: 9
blackgrass; [4]
  Blackgrass plant response rating: 10
Sugar beet; [1]
  Sugarbeets plant response rating: 0
Sugar beet; [2]
  Plant response rating, Sugarbeets: 0
Sugar beet; [3]
  Sugarbeets plant response rating: 4
Sugar beet; [4]
  Sugarbeets plant response rating: 4
Wild oat; [1]
  Wild oats plant response rating: 0
Wild oat; [2]
  Plant response rating, Wild oats: 4
Wild oat; [3]
  Wild oats plant response rating: 10
Wild oat; [4]
  Wild oats plant response rating: 10
rape; [1]
  Rape plant response rating: 0
rape; [2]
  Plant response rating, Rape: 3
rape; [3]
  Rape plant response rating: 6
rape; [4]
  Rape plant response rating: 8
soybean; [1]
  Soybean plant response rating: 0
soybean; [2]
  Plant response rating, Soybean: 0
soybean; [3]
  Soybean plant response rating: 0
soybean; [4]
  Soybean plant response rating: 0
Purple nutsedge; Rate 62 g/ha
  Nutsedge plant response rating: 0
Purple nutsedge; Rate 125 g/ha
  Plant response rating, Nutsedge: 0
corn; [1]
  Corn plant response rating: 0
corn; [2]
  Plant response rating, Corn: 0
corn; [3]
  Corn plant response rating: 0
corn; [4]
  Corn plant response rating: 0
Surinam grass; [1]
  B. signalgrass plant response rating: 5
Surinam grass; [2]
  Plant response rating, B. signalgrass: 8
Surinam grass; [3]
  B. signalgrass plant response rating: 8
Surinam grass; [4]
  B. signalgrass plant response rating: 9
morningglory; [1]
  Morningglory plant response rating: 0
morningglory; [2]
  Plant response rating, Morningglory: 0
morningglory; [3]
  Morningglory plant response rating: 2
morningglory; [4]
  Morningglory plant response rating: 2
Giant foxtail; [1]
  Giant foxtail plant response rating: 4
Giant foxtail; [2]
  Plant response rating, Giant foxtail: 7
Giant foxtail; [3]
  Giant foxtail plant response rating: 8
Giant foxtail; [4]
  Giant foxtail plant response rating: 8
velvetleaf; [1]
  Velvetleaf plant response rating: 0
velvetleaf; [2]
  Plant response rating, Velvetleaf: 0
velvetleaf; [3]
  Velvetleaf plant response rating: 0
velvetleaf; [4]
  Velvetleaf plant response rating: 0
cocklebur; [1]
  Cocklebur plant response rating: 0
cocklebur; [2]
  Plant response rating, Cocklebur: 0
cocklebur; [3]
  Cocklebur plant response rating: 0
cocklebur; [4]
  Cocklebur plant response rating: 0
crabgrass; [1]
  Crabgrass plant response rating: 6
crabgrass; [2]
  Plant response rating, Crabgrass: 6
crabgrass; [4]
  Crabgrass plant response rating: 7
wheat; [1]
  Wheat plant response rating: 0
wheat; [2]
  Plant response rating, Wheat: 0
wheat; [3]
  Wheat plant response rating: 5
wheat; [4]
  Wheat plant response rating: 7
bedstraw; [1]
  Bedstraw plant response rating: 0
bedstraw; [2]
  Plant response rating, Bedstraw: 0
bedstraw; [3]
  Bedstraw plant response rating: 0
bedstraw; [4]
  Bedstraw plant response rating: 2
pigweed; [1]
  Redroot pigweed plant response rating: 0
pigweed; [2]
  Plant response rating, Redroot pigweed: 7
pigweed; [3]
  Redroot pigweed plant response rating: 8
pigweed; [4]
  Redroot pigweed plant response rating: 9

From patent US6737383B1, “Herbicidal oxadiazolidines” (priority 1999, dated 2004)
